Assay results reported in a compilation of properties of binary mixtures (doi:10.1039/c8ra04127j).

Experiment: xn = mol fraction of the nth substance listed
Conditions: 100 kPa

CC#N + C[N+](C)(C)CCC[n+]1ccccc1.N#C[N-]C#N.N#C[N-]C#N
x2 = 0
Conditions	viscosity [mPa·s]
283.15 K	0.401
288.15 K	0.382
293.15 K	0.364
298.15 K	0.348
303.15 K	0.333
308.15 K	0.32
313.15 K	0.307
318.15 K	0.296
323.15 K	0.285

C[N+](C)(C)CCC[n+]1ccccc1.N#C[N-]C#N.N#C[N-]C#N + CC#N
viscosity [mPa·s]
Conditions	x1 = 0.0999	x1 = 0.1999	x1 = 0.2998	x1 = 0.3997	x1 = 0.4999	x1 = 0.6002	x1 = 0.7001	x1 = 0.7998	x1 = 0.8997	x1 = 1
283.15 K	4.14	14.2	52.8	131	245	474	–	1385	2375	7557
288.15 K	3.75	12.3	42.2	98	175	321	554	848	–	–
293.15 K	3.45	–	34.5	–	129	226	371	562	850	–
298.15 K	3.21	9.55	28.7	59.8	98	166	264	382	–	1306
303.15 K	–	8.55	–	48.3	76.3	125	192	–	392	831
308.15 K	2.83	–	21	39.6	61.3	96.7	146	200	286	558
313.15 K	2.67	7.03	18.2	33.3	50	76.6	109	145	213	386
318.15 K	2.54	6.43	–	28.2	43.5	63.9	89.7	118	161	281
323.15 K	–	5.91	14.1	24.2	36.7	51.7	70.9	91.6	123	–
328.15 K	2.32	5.47	12.5	21	30.6	43.3	57.6	73.2	95.6	162
333.15 K	2.23	–	11.2	18.4	27.6	–	48.5	60.3	75.3	127
